Experimental data reported in patent US10143681B2, “Factor XIa inhibitors” (MERCK SHARP & DOHME CORP., priority 2016, dated 2018).

Target: human Factor XIa (Homo sapiens (Human), UniProt P03951)
Test: Factor XIa Assay
Assay type: biochemical
Settings: for IC50: human Factor XIa 0.04 nM, 30 min pre-incubation at 25° C., substrate GPR-AFC, read-out: FXIa IC50; for inhibition at 1 µM: read-out: FXIa % Inh. @ 1000 nM
Protocol: The effectiveness of a compound of the present invention as an inhibitor of Coagulation Factor XIa can be determined using a relevant purified serine protease, and an appropriate synthetic substrate. The rate of hydrolysis of the chromogenic or fluorogenic substrate by the relevant serine protease was measured both in the absence and presence of compounds of the present invention. Assays were conducted at room temperature or at 37° C. […] A decrease in the rate of fluorescence change in the presence of inhibitor is indicative of enzyme inhibition. Such methods are known to one skilled in the art. The results of this assay are expressed as the half-maximal inhibitory concentrations (IC50), or the inhibitory constant, Ki.
Compounds were pre-incubated for 30 minutes at 25° C. with human (0.04 nM) Factor XIa in 50 mM HEPES buffer with 150 mM sodium chloride, 5 mM calcium chloride, 0.1% PEG 8000, pH 7.4. Factor XIa enzymatic activity was determined by addition of the substrate glycine-proline-arginine-7-amido-4-trifluoromethylcoumarin (GPR-AFC) and measurement of the fluorescence at 400/505 nm after a 60 minute incubation at 25° C. The % inhibition for each data point was calculated from the data and analyzed using the log (inhibitor) vs. response four parameters equation to determine the half-maximal inhibitory concentrations (IC50). The IC50 were converted to equilibrium inhibitory constants (Ki) using the Cheng-Prusoff equation.

Sequence of human Factor XIa (P03951 388-625): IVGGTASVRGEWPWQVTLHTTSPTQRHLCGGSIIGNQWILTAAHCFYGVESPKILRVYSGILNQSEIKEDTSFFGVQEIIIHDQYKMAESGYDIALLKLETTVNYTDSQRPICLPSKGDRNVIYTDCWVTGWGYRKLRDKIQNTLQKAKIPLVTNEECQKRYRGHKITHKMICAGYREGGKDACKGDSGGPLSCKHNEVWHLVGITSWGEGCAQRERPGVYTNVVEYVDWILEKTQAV
Sequence of human Factor XIa (P03951 19-387 partner): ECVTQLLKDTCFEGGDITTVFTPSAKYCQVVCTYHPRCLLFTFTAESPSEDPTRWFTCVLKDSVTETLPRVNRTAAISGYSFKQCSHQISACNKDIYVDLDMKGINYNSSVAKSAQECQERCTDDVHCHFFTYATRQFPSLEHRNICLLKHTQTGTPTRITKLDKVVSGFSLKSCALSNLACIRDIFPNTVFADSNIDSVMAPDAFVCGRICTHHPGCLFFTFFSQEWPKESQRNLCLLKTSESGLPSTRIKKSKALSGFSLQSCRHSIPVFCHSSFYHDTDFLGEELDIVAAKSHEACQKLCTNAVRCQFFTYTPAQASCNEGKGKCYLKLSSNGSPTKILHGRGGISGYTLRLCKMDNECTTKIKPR

Row | SMILES | IC50 [nM] | inhibition at 1 µM (@ 1000 nM compound) [%] | FXIa % Inh. @ 1000 nM (@ 1000 nM compound) [%]
1 | CC1CC1C[C@H](C(=O)Nc1ccc(C(=O)O)cc1)c1ccc(-c2c(OC(F)F)ccc(Cl)c2F)c[n+]1[O-] (single isomer, unassigned) [Example 54] | 370 |  | 
2 | C[C@]1(O)CC[C@@H](CC(C(=O)Nc2ccc(C(=O)O)cc2)c2ccc(-c3c(C(F)F)ccc(Cl)c3F)c[n+]2[O-])CC1 (single isomer, unassigned) [Example 44, 2-(1-((4-carboxyphenyl)amino)-3-((1s,4s)-4-hydroxy-4-methylcyclohexyl)-1-oxopropan-2-yl)-5-(3-chloro-6-(difluoromethyl)-2-fluorophenyl)pyridine 1-oxide] | 299 |  | 
3 | COc1ccc(Cl)c(F)c1-c1ccc(C(CC2CC2)C(=O)Nc2ccc(C(=O)O)cc2)[n+]([O-])c1 (single isomer, unassigned) [Example 11, (R)- or (S)-4-({2-[5-(3-chloro-2-fluoro-6-methoxyphenyl)-1-oxidopyridin-2-yl]-3-cyclopropylpropanoyl}amino) benzoic acid] | 36 |  | 
4 | O=C(O)c1ccc(NC(=O)C(CC2CC(F)(F)C2)c2ccc(-c3c(OC(F)F)ccc(Cl)c3F)c[n+]2[O-])cc1 (racemic) [Example 49, (S)- and (R)-2-(1-((4-carboxyphenyl)amino)-3-(3,3-difluorocyclobutyl)-1-oxopropan-2-yl)-5-(3-chloro-6-(difluoromethoxy)-2-fluorophenyl)pyridine 1-oxide] |  | 47 | 
5 | O=C(O)c1ccc(NC(=O)C(CC2CCC2)c2ccc(-c3c(OC(F)F)ccc(Cl)c3F)c[n+]2[O-])cc1 (single isomer, unassigned) [Example 14, (S)- or (R)-4-[(2-{5-[3-chloro-6-(difluoromethoxy)-2-fluorophenyl]-1-oxidopyridin-2-yl}-3-cyclobutylpropanoyl)amino] benzoic acid] | 47 |  | 
6 | CC1CCC1CC(C(=O)Nc1ccc(C(=O)O)cc1)c1ccc(-c2c(OC(F)F)ccc(Cl)c2F)c[n+]1[O-] (single isomer, unassigned) [Example 106, 2-(1-((4-carboxyphenyl)amino)-3-(2-methylcyclobutyl)-1-oxopropan-2-yl)-5-(3-chloro-6-(difluoromethoxy)-2-fluorophenyl)pyridine 1-oxide] | 3.79 |  | 
7 | CC1CC1C[C@H](C(=O)Nc1ccc(C(=O)O)cc1)c1ccc(-c2c(C(F)F)ccc(Cl)c2F)c[n+]1[O-] (single isomer, unassigned) [Example 61] | 55 |  | 
8 | O=C(O)c1ccc(NC(=O)[C@@H](CC2CC2)c2ccc(-c3c(OCC4CC4)ccc(Cl)c3F)c[n+]2[O-])cc1 [Example 12, (S)-4-[(2-{5-[3-chloro-6-(cyclopropylmethoxy)-2-fluorophenyl]-1-oxidopyridin-2-yl}-3-cyclopropylpropanoyl)amino] benzoic acid] | > 1000 | 35 | 
9 | Cc1cc(C(CC2CC2)C(=O)Nc2ccc(C(=O)O)cc2)[n+]([O-])cc1-c1c(OC(F)F)ccc(Cl)c1F [Example 67, (S)- and (R)-2-(1-((4-carboxyphenyl)amino)-3-cyclopropyl-1-oxopropan-2-yl)-5-(3-chloro-6-(difluoromethoxy)-2-fluorophenyl)-4-methylpyridine 1-oxide] | 11 |  | 
10 | COc1ccc(Cl)c(F)c1-c1ccc(C(CC2CC2)C(=O)Nc2ccc(C(=O)O)cc2)[n+]([O-])c1 (single isomer, unassigned) [Example 10, (S)- or (R)-4-({2-[5-(3-chloro-2-fluoro-6-methoxyphenyl)-1-oxidopyridin-2-yl]-3-cyclopropylpropanoyl}amino) benzoic acid] | > 1000 | 13 | 
11 | CC(C1CC1)C(C(=O)Nc1ccc(C(=O)O)cc1)c1ccc(-c2c(OC(F)F)ccc(Cl)c2F)c[n+]1[O-] (single isomer, unassigned) [Example 57, 2-(1-((4-carboxyphenyl)amino)-3-cyclopropyl-1-oxobutan-2-yl)-5-(3-chloro-6-(difluoromethoxy)-2-fluorophenyl)pyridine 1-oxide] | > 1000 | 48 | 
12 | CC(C1CC1)C(C(=O)Nc1ccc(C(=O)O)cc1)c1ccc(-c2c(OC(F)F)ccc(Cl)c2F)c[n+]1[O-] (single isomer, unassigned) [Example 59, 2-(1-((4-carboxyphenyl)amino)-3-cyclopropyl-1-oxobutan-2-yl)-5-(3-chloro-6-(difluoromethoxy)-2-fluorophenyl)pyridine 1-oxide] | 286 |  | 
13 | Cc1cc(C(CC2CC2)C(=O)Nc2ccc(C(=O)O)cc2)[n+]([O-])cc1-c1c(OC(F)F)ccc(Cl)c1F [Example 66, (S)- and (R)-2-(1-((4-carboxyphenyl)amino)-3-cyclopropyl-1-oxopropan-2-yl)-5-(3-chloro-6-(difluoromethoxy)-2-fluorophenyl)-4-methylpyridine 1-oxide] | > 1000 | 34 | 
14 | CC1CCC1CC(C(=O)Nc1ccc(C(=O)O)cc1)c1ccc(-c2c(OC(F)F)ccc(Cl)c2F)c[n+]1[O-] (single isomer, unassigned) [Example 103, 2-(1-((4-carboxyphenyl)amino)-3-(2-methylcyclobutyl)-1-oxopropan-2-yl)-5-(3-chloro-6-(difluoromethoxy)-2-fluorophenyl)pyridine 1-oxide] | 153 |  | 
15 | O=C(O)c1ccc(NC(=O)C(CC2CC2)c2ccc(-c3cc(Cl)ccc3C(F)(F)F)c[n+]2[O-])cc1 (single isomer, unassigned) [Example 24, (S)- or (R)-2-(1-((4-carboxyphenyl)amino)-3-cyclopropyl-1-oxopropan-2-yl)-5-(5-chloro-2-(trifluoromethyl)phenyl)pyridine 1-oxide] | > 1000 | 33 | 
16 | COC(=O)c1ccc(NC(=O)C(CC2CC2)c2ccc(-c3c(C(F)F)ccc(Cl)c3F)c[n+]2[O-])cc1 (single isomer, unassigned) [Example 113, 5-(3-chloro-6-(difluoromethyl)-2-fluorophenyl)-2-(3-cyclopropyl-1-((4-(methoxycarbonyl)phenyl)amino)-1-oxopropan-2-yl)pyridine 1-oxide] | 1000 |  | 6
17 | O=C(O)c1ccc(NC(=O)C(CC2CC(F)C2)c2ccc(-c3c(OC(F)F)ccc(Cl)c3F)c[n+]2[O-])cc1 (single isomer, unassigned) [Example 101, 2-(1-((4-carboxyphenyl)amino)-3-(3-fluorocyclobutyl)-1-oxopropan-2-yl)-5-(3-chloro-6-(difluoromethoxy)-2-fluorophenyl)pyridine 1-oxide] |  | 44 | 
18 | O=C(O)c1ccc(NC(=O)C(CC23CC(C2)C3)c2ccc(-c3c(C(F)F)ccc(Cl)c3F)c[n+]2[O-])cc1F (single isomer, unassigned) [Example 123, 2-(3-(bicyclo[1.1.1]pentan-1-yl)-1-((4-carboxy-3-fluorophenyl)amino)-1-oxopropan-2-yl)-5-(3-chloro-6-(difluoromethyl)-2-fluorophenyl)pyridine 1-oxide] | 24.7 |  | 
19 | O=C(O)c1ccc(NC(=O)C(CC2CC2)c2ccc(-c3c(C(F)(F)F)ccc(Cl)c3F)c[n+]2[O-])cc1 (single isomer, unassigned) [Example 26, (S)- or (R)-2-(1-((4-carboxyphenyl)amino)-3-cyclopropyl-1-oxopropan-2-yl)-5-(3-chloro-2-fluoro-6-(trifluoromethyl)phenyl)pyridine 1-oxide] | > 1000 | 39 | 
